How the values were obtained:
[1] = Intravenous pharmacokinetics in Wistar-Hanover rats; format: in vivo, male Wistar-Hanover rats; settings: rat, plasma; for half-life / AUC / Vd / clearance: male, Wistar-Hanover; for half-life / Vd / clearance: prodrug; for AUC / nAUC0-∞: prodrug measured; for AUC: read-out: AUC0-x; for Vd: read-out: Vdss; for clearance: read-out: Clp
Method: (§1) Selected compounds of the present invention were administered in suitable vehicles to male Wistar-Hanover rats. Intravenous (IV) administration to rats was conducted via cannulas implanted in the jugular vein. For oral administration, test compounds were administered by gavage. Blood samples were serially collected following dose administration for up to 24 hr and plasma was separated by centrifugation. The concentration of test compound in rat plasma were determined by a LC-MS/MS assay following a protein precipitation step and addition of an appropriate internal standard. Quantification was done by determining peak area-ratios of the test compound and compound 1a (the metabolite of each of the test compounds) to the internal standard. Pharmacokinetic parameters were obtained using non-compartmental methods (Watson®). The area under the plasma concentration-time curve (AUC0-t) was calculated from the first time point (0 min) up to the last time point with measurable test compound concentration using the linear trapezoidal or linear/log-linear trapezoidal rule. The IV plasma clearance was calculated by dividing the dose by AUC0-inf. The terminal half-life of elimination was determined by unweighted linear regression analysis of the log-transformed data. The time points for determination of half-life were selected by visual inspection of the data. The volume of distribution at steady state (Vdss) was obtained from the product of plasma clearance and mean residence time (determined by dividing the area under the first moment curve by the area under the curve). The maximum plasma concentration (Cmax) and the time at which maximum concentration occurred (Tmax) were obtained by inspection of the plasma concentration-time data. Absolute oral bioavailability was determined from dose-adjusted IV and P.O. AUC ratios.

[2] = Oral pharmacokinetics in Wistar-Hanover rats; format: in vivo, male Wistar-Hanover rats; settings: plasma, rat; for bioavailability: oral, prodrug, from dose-adjusted IV and P.O. AUC ratios; for Tmax / AUC / Cmax / nAUC: oral gavage, prodrug measured; for AUC: read-out: AUC0-x hr
Method: as §1

[3] = tested on: cryopreserved hepatocytes from dog; test: Metabolism of compounds in hepatocyte suspensions (prodrug hydrolysis), dog; format: in vitro ADME; settings: prodrug 1 μM, dog hepatocytes 1×10^6 cells/mL, 37° C.
Method: (§2) Selected compounds of the present invention (1 μM) were incubated with suspensions of cryopreserved hepatocytes from rat, dog and human subjects at a cell density of 1×10^6 cells/mL. The samples were incubated for 0, 5, 15, 30, 60 and 90 minutes in a 95% humidified incubator at 37° C. with 5% CO2. At each time point, the samples were quenched with acetonitrile containing an appropriate internal standard. The samples were then vortex-mixed and centrifuged at ˜2,900×g for 30 minutes. The supernatants were transferred to clean plates and analyzed using LC-MS/MS. Following quantification of prodrug and parent in the samples, half lives of conversion (t1/2) were determined from the rates of prodrug degradation according to first-order kinetics. Conversion to active metabolite (compound 1a) was confirmed by following the formation of compound 1a.

[4] = tested on: cryopreserved hepatocytes from rat; test: Metabolism of compounds in hepatocyte suspensions (prodrug hydrolysis), rat; format: in vitro ADME; settings: prodrug 1 μM, rat hepatocytes 1×10^6 cells/mL, 37° C.
Method: as §2

[5] = Dog pharmacokinetic study, oral dose; format: in vivo; parameters: AUC(0-t) / Tmax: dose or concentration left out as unconfirmed; settings: male, plasma, fasted Beagle dogs, compound measured = prodrug dosed; for Cmax / AUC(0-t): mean ± SE; for AUC(0-t): read-out: AUC0-24 hr; for Tmax: median
Method: (§3) Six Male Beagle Dogs (Marshall Farms) weighing 9.0-11.6 kg were used for the studies. Studies were conducted under a protocol approved by the WP-IACUC (Animal Procedure Statement #09068544080285). […] Dosing was followed by 5 mL water rinse via oral gavage for oral dosing or with a post-dose water flush of the catheter for colonic dosing. Water was restricted for 1 hour post dose. Food was returned at 4 hours after dosing. Blood (1-mL) was drawn at pre-dose, 0.25, 0.5, 1, 2, 4, 6, 8 and 24 hours post-dosing. The plasma was separated by centrifugation (10 minutes at 2500 g) and kept frozen at −70° C. until analysis by LC-MS/MS.

[6] = tested on: cryopreserved hepatocytes from human; test: Metabolism of compounds in hepatocyte suspensions (prodrug hydrolysis), human; format: in vitro ADME; settings: prodrug 1 μM, human hepatocytes 1×10^6 cells/mL, 37° C.
Method: as §2

[7] = Dog pharmacokinetic study, colonic dose; format: in vivo, Male Beagle Dogs; parameters: AUC(0-t) / Tmax: dose or concentration left out as unconfirmed; settings: for colonic absorption versus metabolite Compound 1a: Beagle dogs, colonic dosing, statement in words; for Cmax / AUC(0-t) / Tmax: male, dog, plasma, fasted Beagle dogs, Colonic, compound measured = prodrug dosed; for Cmax / AUC(0-t): mean ± SE; for AUC(0-t): read-out: AUC0-24 hr; for Tmax: median
Method: as §3

[8] = male, Wistar-Hanover, read-out: Cmax

bioavailability ([2]; male, Wistar-Hanover) [%] | Tmax ([2]; male, Wistar-Hanover) [min] | AUC ([2]; male, Wistar-Hanover) [µM·h] | Cmax [2, 8] [nM] | nAUC [2] [µM·h] | Remaining at 90 min, Dog [3] [%] | Remaining at 90 min, Rat [4] [%] | Remaining at 90 min, Human [6] [%] | SMILES | half-life [1] [min] | AUC [1] [µM·h] | nAUC0-∞ [1] [µM·h] | other results
6.6 | 67.8 | 0.039 | 19 | 0.008 | – | – | – | Cc1nnc(C(=O)NC(C)(C)c2nc(C(=O)NCc3ccc(F)cc3)c(OC(C)OC(=O)OC(C)C)c(=O)n2C)o1 (stereo not shown) [Compound 2] | 10.2 | 0.119 | 0.119 | Vd [1]: 2.17 L/kg; clearance [1]: 244 mL/min/kg
– | – | – | – | – | 3.31 | 2.72 | 2.12 | CCCCOC(=O)OC(C)Oc1c(C(=O)NCc2ccc(F)cc2)nc(C(C)(C)NC(=O)c2nnc(C)o2)n(C)c1=O (stereo not shown) [Compound 7] | – | – | – | –
– | – | – | – | – | 5.97 | 38.75 | 14.81 | Cc1nnc(C(=O)NC(C)(C)c2nc(C(=O)NCc3ccc(F)cc3)c(OC(OC(=O)OC(C)C)C(C)C)c(=O)n2C)o1 (stereo not shown) [Compound 12] | – | – | – | –
7 | 45 | 0.028 | 21 | 0.006 | 8.90 | 6.20 | 14.00 | CCOC(=O)OC(CC)Oc1c(C(=O)NCc2ccc(F)cc2)nc(C(C)(C)NC(=O)c2nnc(C)o2)n(C)c1=O (stereo not shown) [Compound 15] | 8.4 | 0.085 | 0.085 | Vd [1]: 3.48 L/kg; clearance [1]: 388 mL/min/kg
– | – | – | – | – | 1.70 | 0.60 | 1.80 | Cc1nnc(C(=O)NC(C)(C)c2nc(C(=O)NCc3ccc(F)cc3)c(OCOC(=O)OC(C)C)c(=O)n2C)o1 [Compound 20] | – | – | – | –
– | – | – | – | – | 8.14 | 50.65 | 28.06 | CC(=O)OC(Oc1c(C(=O)NCc2ccc(F)cc2)nc(C(C)(C)NC(=O)c2nnc(C)o2)n(C)c1=O)C(C)C (stereo not shown) [Compound 23] | – | – | – | –

SMILES | bioavailability ([2]; male, Wistar-Hanover) [%] | Tmax ([2]; male, Wistar-Hanover) [min] | AUC ([2]; male, Wistar-Hanover) [µM·h] | Cmax [2, 8] [nM] | nAUC [2] [µM·h] | Remaining at 90 min, Dog [3] [%] | Remaining at 90 min, Rat [4] [%] | Remaining at 90 min, Human [6] [%] | half-life [1] [min] | AUC [1] [µM·h] | nAUC0-∞ [1] [µM·h] | other results
CCOC(=O)OC(C)Oc1c(C(=O)NCc2ccc(F)cc2)nc(C(C)(C)NC(=O)c2nnc(C)o2)n(C)c1=O (stereo not shown) [Compound 1] | 3 | 15 | 0.002 | 6 | 0.0004 | 15.94 | 30.30 | 19.32 | 9 | 0.012 | 0.012 | Cmax [5]: 212 ± 32 nM; AUC(0-t) [5]: 0.146 ± 0.033 µM·h; Tmax [5]: 18 min; colonic absorption versus metabolite Compound 1a [7]: significant increase in colonic absorption; Cmax [7]: 91 ± 25 nM; AUC(0-t) [7]: 0.083 ± 0.034 µM·h; Tmax [7]: 18 min
Cc1nnc(C(=O)NC(C)(C)c2nc(C(=O)NCc3ccc(F)cc3)c(OCOC(=O)C(C)(C)C)c(=O)n2C)o1 [Compound 22] | – | – | – | – | – | 3.21 | 3.58 | 4.27 | 2.4 | 0.012 | 0.012 | Cmax [2]: BLQ; Cmax [5]: 8 ± 2 nM; AUC(0-t) [5]: 0.006 ± 0.002 µM·h; Tmax [5]: 30 min; colonic absorption versus metabolite Compound 1a [7]: significant increase in colonic absorption; Cmax [7]: 10 ± 3 nM; AUC(0-t) [7]: 0.014 ± 0.003 µM·h; Tmax [7]: 15 min
